Data as given in ChEMBL document CHEMBL1147149, “Ecdysteroids from Serratula wolffii roots” (2007).

Tested on: Acyrthosiphon pisum
Test: Toxicity against larvae of orally dosed Acyrthosiphon pisum Harris
Format: functional

Row | Compound | LC50 [ppm]
1 | CC(C)(O)CC[C@@H](O)[C@](C)(O)[C@H]1CC[C@@]2(O)C3=CC(=O)[C@@H]4C[C@@H](O)[C@@H](O)C[C@]4(C)[C@H]3CC[C@]12C [20-HYDROXYECDYSONE] | 1.07
2 | C/C(=C\CCC(C)(C)O)[C@H]1CC[C@@]2(O)C3=CC(=O)[C@@H]4C[C@@H](O)[C@@H](O)[C@@H](O)[C@]4(C)C3CC[C@]12C (stereo partly drawn) | 48.5
3 | C/C(=C\CCC(C)(C)O)[C@H]1CC[C@@]2(O)C3=CC(=O)[C@@H]4C[C@@H](O)[C@@H](O)C[C@]4(C)C3CC[C@]12C (stereo partly drawn) | >100
